{"source": "paper PMC12194779", "about": "“Synergistic Insecticidal Activity of Plant Volatile Compounds: Impact on Neurotransmission and Detoxification Enzymes in Sitophilus zeamais” (Insects, 2025)", "key": {"[1]": {"system": "CAT activity in S. oryzae", "design": "method as in PMID 31027573", "settings": "cited from earlier work"}, "Sitophilus zeamais [2]": {"system": "Sitophilus zeamais", "assay": "whole plant or invertebrate", "settings": "Sitophilus zeamais; for EC90: read-out: Fumigant Toxicity LC90 (95% FL)", "protocol": "(§1) The insects used in this study were Sitophilus zeamais Motschulsky (Coleoptera: Curculionidae), identified by the Instituto Colombiano Agropecuario (ICA) under report number R3823M0000425. […] The adult insects used in all the experiments were 6 to 10 days post-emergence.\nThe treated disks were affixed to the inner surface of the screw cap of 22 mL glass vials. […] All treatments were performed in two independent experiments, each with five replicates.\n(§2) Mixtures predicted by the RSM were prepared based on mole fractions. […] Four replicates were performed for each treatment and control across two independent experimental runs.\nDose reduction indices (DRIs) were also calculated to estimate how much the dose of each compound in a synergistic combination could be reduced to achieve a 50% effect (Equation (4)). DRIs were interpreted as favorable when >1, neutral at 1, and unfavorable when <1. Values above the log DRI = 0 line indicate favorable dose reductions.(4) (IRD)i=CL50i(fax)i/(1−(fax)i)^1/mi/(D)i"}, "S. zeamais [3]": {"system": "S. zeamais", "settings": "cited from earlier work"}, "Sitophilus zeamais [4]": {"system": "Sitophilus zeamais", "type": "in vivo", "settings": "for Contact Toxicity LD50 (95% FL) / Contact Toxicity LD90 (95% FL): topical, 24 h after exposure", "protocol": "as §1\nGroups of 10 insects, previously placed in Petri dishes, were immobilized by exposure to low temperatures (0 °C). An initial dose of 50.0 µg per adult was applied topically to the dorsal thorax of each insect using aliquots of 0.20 µL from 0.25 mg/µL solutions in n-hexane. […] All treatments were performed in two independent experiments, each with four replicates. Insect mortality was assessed after 24 h, and mortality percentages were calculated using Abbott’s correction formula (Equation (1)).\nas §2\nDose reduction indices (DRIs) were also calculated to estimate how much the dose of each compound in a synergistic combination could be reduced to achieve a 50% effect (Equation (4)). DRIs were interpreted as favorable when >1, neutral at 1, and unfavorable when <1."}, "S. zeamais [5]": {"system": "S. zeamais", "design": "method as in PMID 21173724, PMID 22236213", "settings": "cited from earlier work"}, "[6]": {"settings": "cited from earlier work"}, "AChE of S. zeamais": {"system": "AChE of S. zeamais", "assay": "AChE activity assay (modified Ellman) with S. zeamais protein extract", "type": "biochemical, Sitophilus zeamais", "settings": "120 mg/L", "protocol": "The compounds and mixtures evaluated in the in vitro assays were prepared in the same buffer supplemented with 0.5% (v/v) Triton X-100 (Sigma-Aldrich®, Saint Louis, MO, USA).\nThe supernatant was filtered, and 20 mM benzamidine was added. The extracts were stored in 5 mL aliquots at −20 °C. Preliminary assays were performed to quantify the specific activity of AChE (0.02–1.00 U/mL), GST (0.1–0.8 U/mL), and CAT (0.1–25 U/mL), and to optimize assay conditions (enzyme dilution: 1/8 to 1% v/v; substrate concentrations: 2 × km or within assay linearity).\nThen, 50 µL of DTNB and 50 µL of ATChI were added. […] Inhibition percentages were calculated using Equation (5)."}, "[7]": {"system": "glutathione S-transferase (GST) activity in S. zeamais", "assay": "GST activity assay (modified Habig) with S. zeamais protein extract", "type": "biochemical, Sitophilus zeamais", "settings": "120 mg/L", "protocol": "Enzymatic assays were performed in the assay buffer, consisting of 0.1 M potassium phosphate buffer (pH 7.2). The compounds and mixtures evaluated in the in vitro assays were prepared in the same buffer supplemented with 0.5% (v/v) Triton X-100 (Sigma-Aldrich®, Saint Louis, MO, USA).\nA modified version of the method described by Oviedo et al. was used. Adults of S. zeamais (8 g; ~3125 insects) were frozen in liquid nitrogen, homogenized in a 1:10 ratio with assay buffer, and centrifuged at 13,000× g for 60 min at 4 °C. The supernatant was filtered, and 20 mM benzamidine was added. The extracts were stored in 5 mL aliquots at −20 °C. Preliminary assays were performed to quantify the specific activity of AChE (0.02–1.00 U/mL), GST (0.1–0.8 U/mL), and CAT (0.1–25 U/mL), and to optimize assay conditions (enzyme dilution: 1/8 to 1% v/v; substrate concentrations: 2 × km or within assay linearity). Each experiment was performed independently three times, with three technical replicates per experiment.\nA modified version of Habig’s method was used. The protein extract (50 µL; 0.59 U/mL) was incubated with 50 µL of the compound or mixture (120 mg/L), followed by 50 µL each of CDNB and reduced glutathione (GSH). Kinetic absorbance was measured at 340 nm for 8 min. Blanks (without substrate) and quercetin (positive control) were included. Inhibition (%) was calculated using Equation (5), and treatment differences were evaluated via parametric ANOVA (α = 0.05) in GraphPad Prism 8.0.2 [42, 43]. Each experiment was performed independently three times, with three technical replicates per experiment.(5) % Inhibition=1−Am−AB/AC ×100 where Am is the absorbance of the sample, AB is the absorbance of the blank, and AC is the absorbance of the negative control."}, "[8]": {"design": "method as in doi:10.1016/B978-0-12-819092-0.00021-2", "settings": "oral; cited from earlier work"}, "[9]": {"settings": "in Homo sapiens, 24 h, read-out: Fumigant Toxicity LC50 (95% FL)"}, "[10]": {"settings": "read-out: LC50 values, fumigant activity (Figure 3)"}}, "note": "Several values for one entry are separate records, joined by “and”; a condition that tells them apart may be missing. Equal entries are not always repeated. Where two headings read alike, the source gives them in different places.", "data": [{"smiles": "CC(C)[C@@H]1CC[C@@H](C)CC1=O", "note": "[menthone]", "values": [{"measurement": "reduction of CAT activity", "setting": "[1]", "value": "~ 30%"}]}, {"smiles": "Cc1ccc(C(C)C)cc1", "note": "[Compound C12, p-Cymene]", "values": [{"measurement": "LC50", "setting": "Sitophilus zeamais [2]; [9]", "value": "28.7 µg/mL and 214 µM"}, {"measurement": "EC90", "setting": "Sitophilus zeamais [2]; in Homo sapiens, 24 h", "value": "47 µg/mL and 350 µM"}, {"measurement": "LC50 in vapor-phase assays without physical barriers", "setting": "S. zeamais [3]; previous reports", "value": 23.3, "unit": "µg/mL"}]}, {"smiles": "CCCCCCCCC", "note": "[Compound C20, n-Nonane]", "values": [{"measurement": "LC50", "setting": "Sitophilus zeamais [2]; [9]", "value": "109 µg/mL and 851 µM"}, {"measurement": "EC90", "setting": "Sitophilus zeamais [2]; in Homo sapiens, 24 h", "value": "172 µg/mL and 1.34 mM"}, {"measurement": "Contact Toxicity LD50 (95% FL)", "setting": "Sitophilus zeamais [4]", "value": 21.42, "unit": "µg/Adult"}, {"measurement": "Contact LD50 previously reported for 7-day assays", "setting": "S. zeamais [5]", "value": 17.62, "unit": "µg/adult"}]}, {"smiles": "CC1(C)C(C=C(Cl)Cl)C1C(=O)OCc1cccc(Oc2ccccc2)c1", "note": "(stereo not shown) [permethrin]", "values": [{"measurement": "reported LD50", "setting": "[6]", "value": 42.75, "unit": "µg/adult"}]}, {"smiles": "Cc1ccc(C(C)C)cc1O", "note": "[Compound C25, Carvacrol]", "values": [{"measurement": "Contact Toxicity LD50i (LC-95%)", "setting": "Sitophilus zeamais [4]; mixtures and their components (Table 3)", "value": 8.71, "unit": "µg/Adult"}, {"measurement": "Contact Toxicity LD90 (95% FL)", "setting": "Sitophilus zeamais [4]", "value": "13.45 (12.19–15.38) µg/Adult"}, {"measurement": "AChE inhibition", "setting": "AChE of S. zeamais", "value": 46.85, "unit": "%"}, {"measurement": "GST Inhibition λ340 (%)", "setting": "[7]", "value": 19.3, "unit": "%"}, {"measurement": "oral LD50", "setting": "[8]", "value": 2462.23, "unit": "mg/kg"}]}, {"smiles": "CC1=CC[C@@](O)(C(C)C)CC1", "note": "[Compound C5, R-(−)-Terpinen-4-ol]", "values": [{"measurement": "LC50", "setting": "Sitophilus zeamais [2]; [9]", "value": "4.03 µg/mL and 26.1 µM"}, {"measurement": "EC90", "setting": "Sitophilus zeamais [2]; in Homo sapiens, 24 h", "value": "6.13 µg/mL and 39.8 µM"}, {"measurement": "LC50", "setting": "Sitophilus zeamais [2]; [10]", "value": 4.03, "unit": "µg/mL"}, {"measurement": "Contact Toxicity LD50 (95% FL)", "setting": "Sitophilus zeamais [4]", "value": "19.64 (18.42–21.45) µg/Adult"}, {"measurement": "Contact Toxicity LD90 (95% FL)", "setting": "Sitophilus zeamais [4]", "value": "24.82 (22.64–29.63) µg/Adult"}, {"measurement": "Fumigant LC50 reported in 7-day exposure assays", "setting": "S. zeamais [3]", "value": 4.79, "unit": "µg/mL"}]}, {"smiles": "C=C(C)[C@@H]1CC=C(C)C(=O)C1", "note": "[Compound C4, R-(−)-Carvone]", "values": [{"measurement": "LC50", "setting": "Sitophilus zeamais [2]; [9]", "value": "1.42 µg/mL and 9.48 µM"}, {"measurement": "EC90", "setting": "Sitophilus zeamais [2]; in Homo sapiens, 24 h", "value": "2.17 µg/mL and 14.4 µM"}, {"measurement": "LC50", "setting": "Sitophilus zeamais [2]; [10]", "value": 1.42, "unit": "µg/mL"}, {"measurement": "Contact Toxicity LD50 (95% FL)", "setting": "Sitophilus zeamais [4]", "value": "16.89 (14.56–19.35) µg/Adult"}, {"measurement": "Contact Toxicity LD90 (95% FL)", "setting": "Sitophilus zeamais [4]", "value": "28.45 (24.99–34.24) µg/Adult"}, {"measurement": "Contact LD50 previously reported for 7-day assays", "setting": "S. zeamais [5]", "value": 2.79, "unit": "µg/adult"}, {"measurement": "Fumigant LC50 reported in 7-day exposure assays", "setting": "S. zeamais [3]", "value": 2.76, "unit": "µg/mL"}]}, {"smiles": "CC1(C)[C@H](C(=O)O[C@H](C#N)c2cccc(Oc3ccccc3)c2)[C@@H]1C=C(Br)Br", "note": "[deltamethrin]", "values": [{"measurement": "mortality", "setting": "[6]; 1 ppm, after 14 days", "value": 45, "unit": "%"}]}]}
